The target of experiment [1] is T1, N-formyl peptide receptor 2 (Homo sapiens, UniProt P25090).
T1 sequence (P25090 whole entry): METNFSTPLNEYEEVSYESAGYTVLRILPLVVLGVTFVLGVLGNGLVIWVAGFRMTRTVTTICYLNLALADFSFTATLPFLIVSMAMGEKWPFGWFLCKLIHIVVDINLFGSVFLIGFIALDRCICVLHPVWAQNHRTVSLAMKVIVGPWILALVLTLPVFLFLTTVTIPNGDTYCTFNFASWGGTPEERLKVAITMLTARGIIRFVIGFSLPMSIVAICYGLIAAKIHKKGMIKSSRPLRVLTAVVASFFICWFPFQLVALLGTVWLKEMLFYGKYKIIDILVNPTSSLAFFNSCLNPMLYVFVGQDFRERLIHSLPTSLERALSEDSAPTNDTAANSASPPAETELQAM
The experiment can be described thus: Antagonist activity at FPR2 in human peripheral blood polymorphonuclear neutrophils assessed as inhibition of WKYMVM-peptide induced ROS production preincubated for 5 mins followed WKYMVM-peptide stimulation measured up to 20 mins by isoluminol-based chemiluminescence assay.

The target in experiment [2] is T2, fMet-Leu-Phe receptor (Homo sapiens) (UniProt P21462).
T2 sequence (whole entry): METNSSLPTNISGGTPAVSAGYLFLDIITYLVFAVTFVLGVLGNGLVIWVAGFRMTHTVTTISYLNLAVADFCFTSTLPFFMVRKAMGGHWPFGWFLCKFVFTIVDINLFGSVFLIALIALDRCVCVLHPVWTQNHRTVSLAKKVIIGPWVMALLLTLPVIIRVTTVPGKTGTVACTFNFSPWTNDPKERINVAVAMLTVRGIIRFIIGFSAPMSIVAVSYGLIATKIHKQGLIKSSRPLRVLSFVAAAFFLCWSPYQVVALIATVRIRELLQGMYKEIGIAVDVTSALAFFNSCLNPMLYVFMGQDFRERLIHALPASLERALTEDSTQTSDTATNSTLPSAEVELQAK
The experiment can be described thus: Antagonist activity at FPR1 in human peripheral blood polymorphonuclear neutrophils assessed as inhibition of fMLF-induced ROS production at <500 nM preincubated for 5 mins followed fMLF stimulation by isoluminol/HRP-based chemiluminescence assay.

In experiment [3] the target is T3, N-formyl peptide receptor 2 (Homo sapiens) (UniProt P25090).
T3 sequence (whole entry): T1 sequence (P25090 whole entry)
The experiment in a line: (§1) Antagonist activity at FPR2 in human peripheral blood polymorphonuclear neutrophils assessed as inhibition of WKYMVM-peptide induced ROS production preincubated for 5 mins followed WKYMVM-peptide stimulation by isoluminol/HRP-based chemiluminescence assay.

Experiment [4] concerns the target T2, fMet-Leu-Phe receptor (Homo sapiens). The experiment can be described thus: Antagonist activity at FPR1 in human peripheral blood polymorphonuclear neutrophils assessed as inhibition of fMLF-induced ROS production at >= 500 nM preincubated for 5 mins followed fMLF stimulation by isoluminol/HRP-based chemiluminescence assay.
The subject of experiment [5] is Neutrophil. The experiment can be described thus: Inhibition of PMA-induced superoxide production in human peripheral blood polymorphonuclear neutrophils at 500 nM preincubated for 5 mins followed PMA stimulation by isoluminol/HRP-based chemiluminescence assay. The class given is functional, cell-based.
The target in experiment [6] is T1, N-formyl peptide receptor 2. The description is as §1.
Experiment [7] concerns the target T2, fMet-Leu-Phe receptor (Homo sapiens). The experiment in a line: Antagonist activity at FPR1 in human peripheral blood polymorphonuclear neutrophils assessed as inhibition of fMLF-induced ROS production at 500 nM preincubated for 5 mins followed fMIFL stimulation by isoluminol/HRP-based chemiluminescence assay.
In experiment [8] the target is T3, N-formyl peptide receptor 2 (Homo sapiens). As to conditions: 100 nM.
Description: Displacement of Cy5-WKYMVM from FPR2 in human peripheral blood polymorphonuclear neutrophils at 100 nM preincubated for 10 mins followed by Cy5-WKYMVM addition measured after 60 mins by fluorescence based assay
Experiment [9] has as its target T2, fMet-Leu-Phe receptor (Homo sapiens). The experiment can be described thus: Antagonist activity at FPR1 in human peripheral blood polymorphonuclear neutrophils assessed as inhibition of N-(4-chlorophenyl)-N'-(5-isopropyl-1-methyl-3-oxo-2-phenyl-2,3-dihydro-1H-pyrazol-4-yl)urea-induced ROS production at 500 nM preincubated for 5 mins followed N-(4-chlorophenyl)-N'-(5-isopropyl-1-methyl-3-oxo-2-phenyl-2,3-dihydro-1H-pyrazol-4-yl)urea stimulation by isoluminol/HRP-based chemiluminescence assay.

The target of experiment [10] is T3, N-formyl peptide receptor 2 (Homo sapiens). Conditions: 100 nM. This is another data set of the same source.
Description: Antagonist activity at FPR2 in human peripheral blood polymorphonuclear neutrophils assessed as inhibition of WKYMVM-induced ROS production at 100 nM preincubated for 5 mins followed Lau-Aoc-(Lys-betaNphe)6-NH2 stimulation by isoluminol/HRP-based chemiluminescence assay
Experiment [11] has the same target. As to conditions: 100 nM. This is another data set of the same source.
Description: Antagonist activity at FPR2 in human peripheral blood polymorphonuclear neutrophils assessed as inhibition of Lau-Aoc-(Lys-betaNphe)6-NH2-induced ROS production at 100 nM preincubated for 5 mins followed Lau-Aoc-(Lys-betaNphe)6-NH2 stimulation by isoluminol/HRP-based chemiluminescence assay
Experiment [12] shares this target. As to conditions: 100 nM. This is another data set of the same source.
Description: Antagonist activity at FPR2 in human peripheral blood polymorphonuclear neutrophils assessed as inhibition of F2Pal10-induced ROS production at 100 nM preincubated for 5 mins followed F2Pal10 stimulation by isoluminol/HRP-based chemiluminescence assay
The target of experiment [13] is T2, fMet-Leu-Phe receptor (Homo sapiens). The experiment can be described thus: Antagonist activity at FPR1 in human peripheral blood polymorphonuclear neutrophils assessed as inhibition of fMIFL-induced ROS production at 500 nM preincubated for 5 mins followed fMIFL stimulation by isoluminol/HRP-based chemiluminescence assay.
The target of experiment [14] is T3, N-formyl peptide receptor 2 (Homo sapiens). Conditions: 100 nM. This is another data set of the same source.
Description: Antagonist activity at FPR2 in human peripheral blood polymorphonuclear neutrophils assessed as inhibition of PSMalpha2-peptide induced ROS production at 100 nM preincubated for 5 mins followed PSMalpha2-peptide stimulation by isoluminol/HRP-based chemiluminescence assay

Active and inactive are the calls of the source. The rule behind the calls is not given here.

Regarding `CCCCCCCCCCCCCCCC(=O)N[C@@H](CCCCN)C(=O)N(CCC(=O)N[C@@H](CCCCN)C(=O)N(CCC(=O)N[C@@H](CCCCN)C(=O)N(CCC(=O)N[C@@H](CCCCN)C(=O)N(CCC(=O)N[C@@H](CCCCN)C(=O)N(CCC(=O)N[C@@H](CCCCN)C(=O)N(CCC(N)=O)[C@@H](C)c1ccccc1)[C@@H](C)c1ccccc1)[C@@H](C)c1ccccc1)[C@@H](C)c1ccccc1)[C@@H](C)c1ccccc1)[C@@H](C)c1ccccc1`, in experiment [1], the IC50 stood at 41 nM. Moreover, the inhibition result in experiment [2] is “inactive”.
`CCN(CC)c1ccc2c(-c3ccccc3C(=O)N[C@@H](CCC(N)=O)C(=O)N[C@@H](CCCNC(=N)N)C(=O)N[C@@H](CC(C)C)C(=O)N[C@@H](Cc3ccccc3)C(=O)N[C@@H](CCC(N)=O)C(=O)N[C@@H](C(=O)N[C@@H](CCCCN)C(=O)NCC(=O)N[C@@H](CCCNC(=N)N)C(=O)N[C@@H](CCCNC(=N)N)C(N)=O)C(C)C)c3ccc(=[N+](CC)CC)cc-3oc2c1`: the inhibition entry in experiment [3] was “Active”.
`CCN(CC)c1ccc2c(-c3ccccc3C(=O)N[C@@H](CCCCN)C(=O)N(CCC(=O)N[C@@H](CCCCN)C(=O)N(CCC(=O)N[C@@H](CCCCN)C(=O)N(CCC(=O)N[C@@H](CCCCN)C(=O)N(CCC(=O)N[C@@H](CCCCN)C(=O)N(CCC(=O)N[C@@H](CCCCN)C(=O)N(CCC(N)=O)Cc3ccc(C(F)(F)F)cc3)Cc3ccc(C(F)(F)F)cc3)Cc3ccc(C(F)(F)F)cc3)Cc3ccc(C(F)(F)F)cc3)Cc3ccc(C(F)(F)F)cc3)Cc3ccc(C(F)(F)F)cc3)c3ccc(=[N+](CC)CC)cc-3oc2c1`: the inhibition entry in experiment [4] and in experiment [5] was “Active” in each case. In addition, the IC50 in experiment [6] worked out at 94 nM.
Regarding `CCN(CC)c1ccc2c(-c3ccccc3C(=O)N[C@@H](CCCCN)C(=O)N(CCC(=O)N[C@@H](CCCCN)C(=O)N(CCC(=O)N[C@@H](CCCCN)C(=O)N(CCC(=O)N[C@@H](CCCCN)C(=O)N(CCC(=O)N[C@@H](CCCCN)C(=O)N(CCC(=O)N[C@@H](CCCCN)C(=O)N(CCC(N)=O)Cc3ccccc3)Cc3ccccc3)Cc3ccccc3)Cc3ccccc3)Cc3ccccc3)Cc3ccccc3)c3ccc(=[N+](CC)CC)cc-3oc2c1`, the inhibition entry in experiment [7], in [9], in experiment [13] and in experiment [2] was “inactive” in each case. Also, the inhibition entry in experiment [8], in [10], in experiment [11], in experiment [12] and in experiment [14] was “Active” in each case. In addition, the concentration for half-maximal inhibition (IC50) in experiment [6] was found to be 15 nM.

One may read the IC50 as the concentration needed to halve the response being measured.

(Values after ChEMBL document CHEMBL4011659, “Combining Elements from Two Antagonists of Formyl Peptide Receptor 2 Generates More Potent Peptidomimetic Antagonists” (J Med Chem, 2017).)
